Experimental data: patent publication US10647723B2, “Thiochromene type compound and use thereof” (SOGANG UNIVERSITY RESEARCH FOUNDATION, priority 2015, dated 2020)

Legend:
[1] = UV-Vis absorption spectrum; assay type: physicochemical; conditions: compared to compounds 1 and 2; FIG. 5
[2] = Solubility comparison: cloud point on adding water to a DMSO solution; assay type: physicochemical; conditions: upon dissolution in DMSO

Row | SMILES | absorbance at 355 nm [1] | water added at which a cloud point formed [2] [%] | melting point
1 | Cn1c2c(c3ccccc31)C(SCCC(=O)ON1C(=O)CCC1=O)Sc1ccccc1-2 (stereo not drawn) [3a, 2,5-Dioxopyrrolidin-1-yl 3-((11-methyl-6,11-dihydrothiochromeno[4,3-b]indol-6-yl)thio)propanoate] | high absorbance | 30 | 90 to 96 °C (dec.)
2 | CCn1c2c(c3ccccc31)C(SCCC(=O)ON1C(=O)CCC1=O)Sc1ccccc1-2 (stereo not drawn) [3b, 2,5-Dioxopyrrolidin-1-yl 3-((11-ethyl-6,11-dihydrothiochromeno[4,3-b]indol-6-yl)thio)propanoate] | – | – | 82 to 87 °C (dec.)
3 | CCCn1c2c(c3ccccc31)C(SCCC(=O)ON1C(=O)CCC1=O)Sc1ccccc1-2 (stereo not drawn) [3c, 2,5-Dioxopyrrolidin-1-yl 3-((11-propyl-6,11-dihydrothiochromeno[4,3-b]indol-6-yl)thio)propanoate] | – | – | 77 to 82 °C (dec.)
4 | CCCCn1c2c(c3ccccc31)C(SCCC(=O)ON1C(=O)CCC1=O)Sc1ccccc1-2 (stereo not drawn) [3d, 2,5-Dioxopyrrolidin-1-yl 3-((11-butyl-6, 11-dihydrothiochromeno[4,3-b]indol-6-yl)thio)propanoate] | – | – | 76 to 81 °C (dec.)
